Experimental data as given in publication PMC12656219, “Cytotoxic Effects Induced by Combined Exposure of the Patulin, Ochratoxin A, and Acetamiprid to HK-2 and SK-N-SH Cell Lines” (Toxins, 2025).
Read-outs that look alike come from different tables or passages of the source.

Tests used:
Caco-2 cells = conditions: cited from earlier work
HK-2 cells = assay: CCK-8 cell viability, individual and combined exposure (CI/DRI analysis), HK-2 cells; assay type: cell-based, human; conditions: for IC50: Homo sapiens; for DRI (dose reduction index): in PAT+OTA+ACM group, from low to high doses
Procedure: (§1) The cytotoxicity of individual contaminations was evaluated using dose–response curves, from which half-maximal inhibitory concentration (IC50) values were calculated. Contaminant concentration and exposure duration were identified as the primary determinants influencing cytotoxic responses. Concentrations employed in the binary and ternary combination assays were selected based on IC50 values obtained from individual treatments in HK-2 and SK-N-SH cell lines.
(§2) Due to the high binding affinity of OTA for serum proteins, all treatments were conducted in medium supplemented with 2% FBS to minimize potential interference with toxicological outcomes. For cytotoxicity evaluation, 100 μL of cell suspension (8 × 10^3 cells/well) was seeded into 96-well plates. Upon reaching approximately 80% confluence, the culture medium was replaced with fresh medium containing varying concentrations of PAT, OTA, ACM, or their combinations. Cells were then incubated for 24 or 48 h, after which cell viability was assessed. Concentrations used for individual mycotoxin exposures are provided in Table S1, while those for binary and ternary mixture exposures are listed in Table S2.
(§3) Cells were diluted to a density of 8 × 10^3 cells/well and seeded in 96-well culture plates. After 24 h incubation, all cells were exposed to various concentrations of individual or combined contaminants and allowed to grow in an incubator for 24 h and 48 h, respectively. The cytotoxicity of the two different cell lines was determined using a CCK-8 kit according to the manufacturer’s instructions. After treatment, 10 μL CCK-8 solution was added to each well (10% culture volume) and incubated for 2 h at 37 °C. Absorbance values (A) were measured at 450 nm using a microplate reader (Thermo Fisher Scientific, Waltham, MA, USA). All treatments were performed in six replicates, and cell activity was calculated as follows: Cell Viability(%)=Aexperiment −A(blank)/Acontrol−A(blank)× 100
(§4) The dose–effect relationship for PAT, OTA, and ACM was calculated using the […] proposed by Chou and Talalay. fa/fu=D/Dm^m
(§5) D was the concentration of the contamination, fa was the cell proliferation inhibition rate, and fu was the unaffected fraction (fu = 1 − fa). Dm was the median effect dose for the 50% inhibition of cell proliferation. m was the coefficient indicating the shape of the dose–effect relationship (m = 1, m > 1, and m < 1 each indicated hyperbolic, sigmoidal, and flat sigmoidal dose–effect curves). The method employed the Dm parameter to measure the cytotoxicity of individual contamination.
(§6) When the composition of contaminations extended to binary or ternary, the interactions of multiple contaminations were assayed by means of combination index model (CI) based on the median effect principle, as the CI values calculated according to a generic formula: nCIx=∑j=1n(D)j/(Dx)j
(§7) ^n(CI)x referred to n kind of contaminant combined cell inhibition rate for x% of composite index, (D)j was referred to the joint action of n type of toxin to a total dose of x% cell inhibition rate, and (Dx)j referred to the combination of each contamination effect itself when dose of x% cell inhibition rate. Overall, the types of combined effects represented by CI = 0.9–1.1, CI < 0.9, and CI > 1.1 were additive, synergistic, and antagonistic, respectively.
(§8) In addition, the impact of contaminants on the combined effects was assessed using the dose reduction index (DRI). DRI indicated a multiplicative reduction in the dose required to produce the same effect when the contaminant was mixed compared to when used alone. […] The DRI was calculated as follows: n(CI)x=∑j=1n(D)j/(Dm)j=∑j=1n1/(DRI)j or (DRI)j=(D)j/(Dm)j
(§9) The IC50 values of the three different contaminations exposed to the two cell lines was calculated by GraphPad Prism 9.4.0 software. […]

SK-N-SH cells [1] = assay: CCK-8 cell viability, individual and combined exposure (CI/DRI analysis), SK-N-SH cells; assay type: cell-based, human; conditions: for IC50: Homo sapiens
Procedure: as §1, §2, §3, §4, §5, §6, §7, §8, §9

SK-N-SH cells [2] = conditions: 24 h; cited from earlier work
[3] = SK-N-SH, 24 h, in PAT+OTA group
[4] = HK-2 cells, 24 h, CCK-8, mean ± SEM, n = 6, read-out: IC50
[5] = HK-2 cells, 48 h, CCK-8, mean ± SEM, n = 6, read-out: IC50
[6] = SK-N-SH cells, 24 h, CCK-8, mean ± SEM, n = 6, read-out: IC50
[7] = SK-N-SH cells, 48 h, CCK-8, mean ± SEM, n = 6, read-out: IC50

SMILES	IC50 (Caco-2 cells)	IC50 (HK-2 cells; HK-2, 24 h)	IC50 (HK-2 cells; HK-2, 48 h)	IC50 (SK-N-SH cells [1]; SK-N-SH, 24 h)	IC50 (SK-N-SH cells [1]; SK-N-SH, 48 h)	DRI (dose reduction index) (SK-N-SH cells [1]; [3])	DRI (dose reduction index) (SK-N-SH cells [1]; SK-N-SH, 48 h, in OTA+ACM group, Fa > 0.5)	DRI (dose reduction index) (HK-2 cells; HK-2, 24 h)	IC50 (HK-2 cells; [4])	IC50 (HK-2 cells; [5])	IC50 (SK-N-SH cells [2])	IC50 (SK-N-SH cells [1]; [6])	IC50 (SK-N-SH cells [1]; [7])
C[C@@H]1Cc2c(Cl)cc(C(=O)N[C@@H](Cc3ccccc3)C(=O)O)c(O)c2C(=O)O1 [OTA, ochratoxin A]	145 µM	2.5 ± 0.049 µg/mL	1 ± 0.021 µg/mL	7 ± 0.357 µg/mL	4.5 ± 0.415 µg/mL	greater than 1	greater than 1	–	–	–	–	–	–
C/C(=N\C#N)N(C)Cc1ccc(Cl)nc1 [ACM, acetamiprid]	–	–	–	–	–	–	–	greater than 1	1160 ± 38.7 µg/mL	900.2 ± 4.1 µg/mL	~10600 µM	700 ± 34.4 µg/mL	550 ± 31.6 µg/mL
O=C1C=C2C(=CCOC2O)O1 (centres unmarked) [PAT, Patulin]	16 µM	–	–	–	–	greater than 1	–	greater than 1	0.5 ± 0.005 µg/mL	0.4 ± 0.006 µg/mL	–	0.5 ± 0.024 µg/mL	0.25 ± 0.001 µg/mL
